Values joined by “and” are separate entries in the source; they are usually repeats but may differ in a detail not shown here. Identical values can stand only once.
Test: molar heat capacity at constant pressure
Conditions: 101.33 kPa, Crystal, Small (less than 1 g) adiabatic calorimetry

O.O.O.O.O.O=S(=O)([O-])[O-].[Cu+2] [copper(II) sulfate pentahydrate]
Conditions | molar heat capacity at constant pressure
195.86 K | 210.72 J/K/mol
196.02 K | 208.8 J/K/mol
196.2 K | 210.85 J/K/mol
196.62 K | 212.01 J/K/mol
196.78 K | 210.59 J/K/mol
196.97 K | 211.56 J/K/mol
197.34 K | 208.77 J/K/mol
197.52 K | 212.45 J/K/mol
197.54 K | 211.37 J/K/mol
197.92 K | 209.01 J/K/mol
198.12 K | 212.62 J/K/mol
198.28 K | 211.94 J/K/mol
198.86 K | 213.01 J/K/mol
199.03 K | 212.84 J/K/mol
199.23 K | 213.44 J/K/mol
199.77 K | 213.38 J/K/mol
199.89 K | 214.1 J/K/mol
200 K | 210.9 J/K/mol
200.02 K | 210.29 J/K/mol
200.18 K | 214.5 J/K/mol
200.35 K | 215.02 J/K/mol
200.44 K | 211.49 J/K/mol
200.5 K | 214.14 J/K/mol
201.23 K | 214.77 J/K/mol
201.49 K | 215.23 J/K/mol
201.51 K | 215.2 J/K/mol
201.96 K | 215.31 J/K/mol
202.12 K | 212.11 J/K/mol
202.61 K | 217.02 J/K/mol
202.68 K | 216.55 J/K/mol
202.83 K | 216.31 J/K/mol
203.14 K | 217.49 J/K/mol
203.42 K | 216.87 J/K/mol
203.52 K | 214.16 J/K/mol
203.74 K | 217.35 J/K/mol
204.14 K | 217.62 J/K/mol
204.2 K | 218.19 J/K/mol
204.22 K | 214.4 J/K/mol
204.87 K | 218.11 J/K/mol and 218.14 J/K/mol
205.53 K | 218.8 J/K/mol
205.59 K | 218.93 J/K/mol
205.99 K | 219.33 J/K/mol
206.31 K | 219.39 J/K/mol
206.33 K | 215.55 J/K/mol
206.4 K | 220.52 J/K/mol
206.59 K | 216.64 J/K/mol
206.85 K | 220.61 J/K/mol
207.02 K | 220.58 J/K/mol
207.11 K | 220.48 J/K/mol
207.81 K | 220.88 J/K/mol
208.18 K | 221.52 J/K/mol
208.23 K | 222.38 J/K/mol
208.45 K | 218.01 J/K/mol
208.52 K | 222.44 J/K/mol
209.24 K | 222.92 J/K/mol
209.37 K | 222.88 J/K/mol
209.5 K | 223.33 J/K/mol
209.64 K | 219.18 J/K/mol
209.68 K | 223.6 J/K/mol
209.96 K | 223.05 J/K/mol
210 K | 219.4 J/K/mol
210.49 K | 223.26 J/K/mol
210.58 K | 219.18 J/K/mol
210.67 K | 223.74 J/K/mol
210.83 K | 223.72 J/K/mol
211.38 K | 224.39 J/K/mol
211.61 K | 224.89 J/K/mol
212.1 K | 224.82 J/K/mol
212.14 K | 225.35 J/K/mol
212.68 K | 221.85 J/K/mol
212.7 K | 220.97 J/K/mol
212.75 K | 225.67 J/K/mol
212.81 K | 225.63 J/K/mol
212.95 K | 226.54 J/K/mol
213.47 K | 226.67 J/K/mol
213.52 K | 226.64 J/K/mol
213.88 K | 226.4 J/K/mol
214.25 K | 227.02 J/K/mol
214.8 K | 227.75 J/K/mol
214.83 K | 222.9 J/K/mol
214.96 K | 227.58 J/K/mol
215 K | 227.95 J/K/mol
215.67 K | 228.21 J/K/mol
215.69 K | 224.43 J/K/mol
216.13 K | 230.23 J/K/mol
216.19 K | 228.74 J/K/mol
216.23 K | 229.64 J/K/mol
216.38 K | 229.09 J/K/mol
216.96 K | 224.83 J/K/mol
217.1 K | 229.55 J/K/mol
217.31 K | 230.09 J/K/mol
217.46 K | 230.34 J/K/mol
217.81 K | 229.9 J/K/mol
218.45 K | 231.22 J/K/mol
218.51 K | 230.59 J/K/mol
218.69 K | 227.07 J/K/mol
218.79 K | 231.49 J/K/mol
219.1 K | 226.58 J/K/mol
219.27 K | 231.87 J/K/mol
219.52 K | 232.65 J/K/mol
219.6 K | 231.9 J/K/mol
219.98 K | 232.07 J/K/mol
220 K | 228 J/K/mol
220.12 K | 232.93 J/K/mol
220.68 K | 232.63 J/K/mol
220.72 K | 233.3 J/K/mol
221.23 K | 229.07 J/K/mol
221.39 K | 233.36 J/K/mol
221.44 K | 233.44 J/K/mol
221.67 K | 229.65 J/K/mol
221.86 K | 234.58 J/K/mol
222.09 K | 234.58 J/K/mol
222.76 K | 235.19 J/K/mol
222.81 K | 235.64 J/K/mol and 235.01 J/K/mol
223 K | 235.73 J/K/mol
223.42 K | 230.15 J/K/mol
223.51 K | 235.25 J/K/mol
224.08 K | 236.48 J/K/mol
224.14 K | 236.55 J/K/mol
224.22 K | 235.98 J/K/mol
224.64 K | 232.13 J/K/mol
224.92 K | 236.68 J/K/mol
225.28 K | 237.03 J/K/mol
225.45 K | 237.85 J/K/mol
225.57 K | 231.89 J/K/mol
225.62 K | 237.74 J/K/mol
226.1 K | 239.21 J/K/mol
226.33 K | 238.26 J/K/mol
226.41 K | 238.72 J/K/mol
226.77 K | 238.57 J/K/mol
227.03 K | 238.58 J/K/mol
227.55 K | 239.68 J/K/mol
227.61 K | 234.56 J/K/mol
227.72 K | 233.69 J/K/mol
227.73 K | 239.34 J/K/mol
228.08 K | 239.61 J/K/mol
228.43 K | 239.99 J/K/mol
228.69 K | 240.1 J/K/mol
229.13 K | 241.13 J/K/mol
229.38 K | 242.74 J/K/mol and 240.91 J/K/mol
229.82 K | 241.69 J/K/mol
229.84 K | 241.43 J/K/mol
229.87 K | 235.54 J/K/mol
230 K | 236.5 J/K/mol
230.54 K | 237.24 J/K/mol
230.59 K | 242.26 J/K/mol
230.69 K | 242.63 J/K/mol
230.95 K | 243.17 J/K/mol
231.28 K | 242.67 J/K/mol
231.97 K | 243.3 J/K/mol
232 K | 244.22 J/K/mol
232.02 K | 238.28 J/K/mol
232.09 K | 244.43 J/K/mol
232.67 K | 243.85 J/K/mol
232.75 K | 246.09 J/K/mol
233.23 K | 245.48 J/K/mol
233.31 K | 244.86 J/K/mol
233.36 K | 244.3 J/K/mol
